Source: patent US10597388B2, “Pyridazinone herbicides” (FMC CORPORATION, priority 2014, dated 2020)

Key:
Assay in all cases: Test C greenhouse herbicide test, pre- and postemergence
Type in all cases: in vivo
[1] = tested on: barnyardgrass (Echinochloa crus-galli)
Procedure, shortened: (§1)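 Preemergence: seeds sown in a loam soil–sand blend and sprayed with test chemicals in a non-phytotoxic solvent mixture containing surfactant. Postemergence: plants grown in peat-based medium and treated at 2 to 18 cm (1- to 4-leaf stage). After 13 to 15 d in a greenhouse, injury was visually rated 0–100 against controls.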

[2] = tested on: velvetleaf (Abutilon theophrasti)
Procedure, shortened: as §1

[3] = tested on: nutsedge, yellow (yellow nutsedge, Cyperus esculentus)
Procedure, shortened: as §1

[4] = tested on: morningglory (Ipomoea coccinea)
Procedure, shortened: as §1

[5] = tested on: lambsquarters (Chenopodium album)
Procedure, shortened: as §1

[6] = tested on: waterhemp (common waterhemp, Amaranthus rudis)
Procedure, shortened: as §1

soybean (Glycine max) = tested on: soybean (Glycine max)
Procedure, shortened: as §1

[7] = tested on: ragweed (common ragweed, Ambrosia elatior)
Procedure, shortened: as §1

[8] = tested on: johnsongrass (Sorghum halepense)
Procedure, shortened: as §1

[9] = tested on: wheat (winter wheat, Triticum aestivum)
Procedure, shortened: as §1

[10] = tested on: ryegrass, Italian (Italian ryegrass, Lolium multiflorum)
Procedure, shortened: as §1

[11] = tested on: blackgrass (Alopecurus myosuroides)
Procedure, shortened: as §1

[12] = tested on: crabgrass, large (large crabgrass, Digitaria sanguinalis)
Procedure, shortened: as §1

corn (Zea mays) = tested on: corn (Zea mays)
Procedure, shortened: as §1

[13] = tested on: pigweed (Amaranthus retroflexus)
Procedure, shortened: as §1

[14] = Postemergence, 31 g ai/ha, scale 0 to 100 (0 no effect, 100 complete control)
[15] = Postemergence, 62 g ai/ha, 0 to 100 scale (0 no effect, 100 complete control)
[16] = Postemergence, 250 g ai/ha, scale 0 to 100, 0 no effect, 100 complete control, 13 to 15 d
[17] = Preemergence, 31 g ai/ha, scale 0 to 100, 0 is no effect, 100 is complete control
[18] = Preemergence, 62 g ai/ha, scale 0 to 100, 0 is no effect, 100 is complete control
[19] = Preemergence, 125 g ai/ha, scale 0 to 100, 0 is no effect, 100 is complete control
[20] = Preemergence, 250 g ai/ha, scale 0 to 100, 0 no effect, 100 complete control
[21] = postemergence, 125 g ai/ha, scale 0 to 100, 0 no effect, 100 complete control

Cc1nn(C)c(=O)c(-c2ccc(Cl)c3ccccc23)c1O [Compound 139]
Plant response rating, Barnyardgrass [1, 14]: 25
Barnyardgrass plant response rating [1, 15]: 20
Plant response rating, Barnyardgrass ([1]; Postemergence, 125 g ai/ha, scale 0 to 100, 0 is no effect, 100 is complete control): 40
Plant response rating, Barnyardgrass [1, 16]: 60
Plant response rating, Barnyardgrass [1, 17]: 20
Plant response rating, Barnyardgrass [1, 18]: 55
Plant response rating, Barnyardgrass [1, 19]: 75
Barnyardgrass plant response rating [1, 20]: 95
Plant response rating, Velvetleaf [2, 14]: 70
Velvetleaf plant response rating [2, 15]: 80
Plant response rating, Velvetleaf [2, 16]: 100
Plant response rating, Velvetleaf [2, 17]: 60
Plant response rating, Velvetleaf [2, 18]: 85
Plant response rating, Velvetleaf [2, 19]: 100
Velvetleaf plant response rating [2, 20]: 100
Velvetleaf plant response rating [2, 21]: 95
Plant response rating, Nutsedge, Yellow [3, 14]: 55
Nutsedge, Yellow plant response rating [3, 15]: 75
Plant response rating, Nutsedge, Yellow [3, 16]: 85
Plant response rating, Nutsedge, Yellow [3, 17]: 65
Plant response rating, Nutsedge, Yellow [3, 18]: 60
Plant response rating, Nutsedge, Yellow [3, 19]: 85
Nutsedge, Yellow plant response rating [3, 20]: 90
Nutsedge, Yellow plant response rating [3, 21]: 70
Plant response rating, Morningglory [4, 14]: 98
Morningglory plant response rating [4, 15]: 100
Plant response rating, Morningglory [4, 16]: 100
Plant response rating, Morningglory [4, 17]: 85
Plant response rating, Morningglory [4, 18]: 90
Plant response rating, Morningglory [4, 19]: 95
Morningglory plant response rating [4, 20]: 98
Morningglory plant response rating [4, 21]: 100
Plant response rating, Lambsquarters [5, 14]: 98
Lambsquarters plant response rating [5, 15]: 95
Plant response rating, Lambsquarters [5, 16]: 100
Plant response rating, Lambsquarters [5, 17]: 100
Plant response rating, Lambsquarters [5, 18]: 90
Plant response rating, Lambsquarters [5, 19]: 95
Lambsquarters plant response rating [5, 20]: 98
Lambsquarters plant response rating [5, 21]: 100
Plant response rating, Waterhemp [6, 14]: 98
Waterhemp plant response rating [6, 15]: 100
Plant response rating, Waterhemp [6, 16]: 100
Plant response rating, Waterhemp [6, 17]: 100
Plant response rating, Waterhemp [6, 18]: 100
Plant response rating, Waterhemp [6, 19]: 100
Waterhemp plant response rating [6, 20]: 100
Waterhemp plant response rating [6, 21]: 100
Plant response rating, Soybean (soybean (Glycine max); [14]): 45
Soybean plant response rating (soybean (Glycine max); [15]): 55
Plant response rating, Soybean (soybean (Glycine max); [16]): 60
Plant response rating, Soybean (soybean (Glycine max); [17]): 25
Plant response rating, Soybean (soybean (Glycine max); [18]): 35
Plant response rating, Soybean (soybean (Glycine max); [19]): 60
Soybean plant response rating (soybean (Glycine max); [20]): 80
Soybean plant response rating (soybean (Glycine max); [21]): 65
Plant response rating, Ragweed [7, 14]: 0
Ragweed plant response rating [7, 15]: 0
Plant response rating, Ragweed [7, 16]: 0
Plant response rating, Ragweed [7, 17]: 75
Plant response rating, Ragweed [7, 18]: 90
Plant response rating, Ragweed [7, 19]: 95
Ragweed plant response rating [7, 20]: 100
Ragweed plant response rating [7, 21]: 0
Plant response rating, Johnsongrass [8, 14]: 5
Johnsongrass plant response rating [8, 15]: 5
Plant response rating, Johnsongrass [8, 16]: 25
Plant response rating, Johnsongrass [8, 17]: 5
Plant response rating, Johnsongrass [8, 18]: 35
Plant response rating, Johnsongrass [8, 19]: 35
Johnsongrass plant response rating [8, 20]: 25
Johnsongrass plant response rating [8, 21]: 15
Plant response rating, Wheat [9, 14]: 45
Wheat plant response rating [9, 15]: 55
Plant response rating, Wheat [9, 16]: 90
Plant response rating, Wheat [9, 17]: 0
Plant response rating, Wheat [9, 18]: 10
Plant response rating, Wheat [9, 19]: 15
Wheat plant response rating [9, 20]: 10
Wheat plant response rating [9, 21]: 60
Plant response rating, Ryegrass, Italian [10, 14]: 5
Ryegrass, Italian plant response rating [10, 15]: 10
Plant response rating, Ryegrass, Italian [10, 16]: 60
Plant response rating, Ryegrass, Italian [10, 17]: 95
Plant response rating, Ryegrass, Italian [10, 18]: 100
Plant response rating, Ryegrass, Italian [10, 19]: 100
Ryegrass, Italian plant response rating [10, 20]: 100
Ryegrass, Italian plant response rating [10, 21]: 35
Plant response rating, Blackgrass [11, 14]: 20
Blackgrass plant response rating [11, 15]: 50
Plant response rating, Blackgrass [11, 16]: 10
Plant response rating, Blackgrass [11, 17]: 50
Plant response rating, Blackgrass [11, 18]: 55
Plant response rating, Blackgrass [11, 19]: 60
Blackgrass plant response rating [11, 20]: 90
Blackgrass plant response rating [11, 21]: 60
Plant response rating, Crabgrass, Large [12, 14]: 20
Crabgrass, Large plant response rating [12, 15]: 10
Plant response rating, Crabgrass, Large [12, 16]: 40
Plant response rating, Crabgrass, Large [12, 17]: 5
Plant response rating, Crabgrass, Large [12, 18]: 30
Plant response rating, Crabgrass, Large [12, 19]: 20
Crabgrass, Large plant response rating [12, 20]: 50
Crabgrass, Large plant response rating [12, 21]: 30
Plant response rating, Corn (corn (Zea mays); [14]): 5
Corn plant response rating (corn (Zea mays); [15]): 0
Plant response rating, Corn (corn (Zea mays); [16]): 15
Plant response rating, Corn (corn (Zea mays); [17]): 0
Plant response rating, Corn (corn (Zea mays); [18]): 0
Plant response rating, Corn (corn (Zea mays); [19]): 10
Corn plant response rating (corn (Zea mays); [20]): 15
Corn plant response rating (corn (Zea mays); [21]): 15
Plant response rating, Pigweed [13, 14]: 80
Pigweed plant response rating [13, 15]: 95
Plant response rating, Pigweed [13, 16]: 98
Plant response rating, Pigweed [13, 17]: 70
Plant response rating, Pigweed [13, 18]: 98
Plant response rating, Pigweed [13, 19]: 100
Pigweed plant response rating [13, 20]: 100
Pigweed plant response rating [13, 21]: 98
